{
  "source": "ChEMBL document CHEMBL1201862",
  "about": "“PubChem BioAssay data set” (2004)",
  "key": {"SN12K1": {"test_system": "SN12K1", "assay": "cells", "format": "functional", "conditions": "Homo sapiens"}, "[1]": {"biological_target": "T1, Corticotropin-releasing factor receptor 2/Corticotropin-releasing factor-binding protein (Homo sapiens, UniProt P24387+Q13324)", "T1 sequence (Q13324 whole entry)": "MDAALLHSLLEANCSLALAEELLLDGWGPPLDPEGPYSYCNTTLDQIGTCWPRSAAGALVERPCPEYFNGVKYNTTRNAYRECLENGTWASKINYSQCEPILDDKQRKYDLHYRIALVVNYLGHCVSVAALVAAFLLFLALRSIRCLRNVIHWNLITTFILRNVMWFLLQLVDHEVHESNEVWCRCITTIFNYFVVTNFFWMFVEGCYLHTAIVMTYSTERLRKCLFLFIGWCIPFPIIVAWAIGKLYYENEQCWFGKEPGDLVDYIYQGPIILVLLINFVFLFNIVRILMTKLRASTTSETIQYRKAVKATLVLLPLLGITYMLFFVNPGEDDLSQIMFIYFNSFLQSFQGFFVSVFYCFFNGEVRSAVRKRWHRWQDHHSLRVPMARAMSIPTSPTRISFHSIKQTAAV", "T1 sequence (P24387 whole entry)": "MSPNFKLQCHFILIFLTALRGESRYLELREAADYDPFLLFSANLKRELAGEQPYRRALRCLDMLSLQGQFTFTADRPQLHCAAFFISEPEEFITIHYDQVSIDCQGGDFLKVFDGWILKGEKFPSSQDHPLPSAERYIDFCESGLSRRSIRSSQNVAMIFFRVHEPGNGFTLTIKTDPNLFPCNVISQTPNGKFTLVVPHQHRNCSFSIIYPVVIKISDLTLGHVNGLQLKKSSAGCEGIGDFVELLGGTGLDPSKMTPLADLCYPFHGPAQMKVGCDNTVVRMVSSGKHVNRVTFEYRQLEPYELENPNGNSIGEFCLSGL", "assay": "Dose Response confirmation of uHTS hits for small molecule antagonists of the CRF-binding protein and CRF-R2 receptor complex.", "format": "functional", "conditions": "read-out: IC50_Mean"}, "[2]": {"biological_target": "T1, Corticotropin-releasing factor receptor 2/Corticotropin-releasing factor-binding protein", "assay": "activators of CRF receptor 2 with binding protein – uHTS hits, confirmation (AID 602473)", "format": "functional", "conditions": "read-out: EC50_Mean"}, "Fatty acid synthase [3]": {"biological_target": "T2, Fatty acid synthase (Homo sapiens, UniProt P49327)", "T2 sequence (P49327 whole entry)": "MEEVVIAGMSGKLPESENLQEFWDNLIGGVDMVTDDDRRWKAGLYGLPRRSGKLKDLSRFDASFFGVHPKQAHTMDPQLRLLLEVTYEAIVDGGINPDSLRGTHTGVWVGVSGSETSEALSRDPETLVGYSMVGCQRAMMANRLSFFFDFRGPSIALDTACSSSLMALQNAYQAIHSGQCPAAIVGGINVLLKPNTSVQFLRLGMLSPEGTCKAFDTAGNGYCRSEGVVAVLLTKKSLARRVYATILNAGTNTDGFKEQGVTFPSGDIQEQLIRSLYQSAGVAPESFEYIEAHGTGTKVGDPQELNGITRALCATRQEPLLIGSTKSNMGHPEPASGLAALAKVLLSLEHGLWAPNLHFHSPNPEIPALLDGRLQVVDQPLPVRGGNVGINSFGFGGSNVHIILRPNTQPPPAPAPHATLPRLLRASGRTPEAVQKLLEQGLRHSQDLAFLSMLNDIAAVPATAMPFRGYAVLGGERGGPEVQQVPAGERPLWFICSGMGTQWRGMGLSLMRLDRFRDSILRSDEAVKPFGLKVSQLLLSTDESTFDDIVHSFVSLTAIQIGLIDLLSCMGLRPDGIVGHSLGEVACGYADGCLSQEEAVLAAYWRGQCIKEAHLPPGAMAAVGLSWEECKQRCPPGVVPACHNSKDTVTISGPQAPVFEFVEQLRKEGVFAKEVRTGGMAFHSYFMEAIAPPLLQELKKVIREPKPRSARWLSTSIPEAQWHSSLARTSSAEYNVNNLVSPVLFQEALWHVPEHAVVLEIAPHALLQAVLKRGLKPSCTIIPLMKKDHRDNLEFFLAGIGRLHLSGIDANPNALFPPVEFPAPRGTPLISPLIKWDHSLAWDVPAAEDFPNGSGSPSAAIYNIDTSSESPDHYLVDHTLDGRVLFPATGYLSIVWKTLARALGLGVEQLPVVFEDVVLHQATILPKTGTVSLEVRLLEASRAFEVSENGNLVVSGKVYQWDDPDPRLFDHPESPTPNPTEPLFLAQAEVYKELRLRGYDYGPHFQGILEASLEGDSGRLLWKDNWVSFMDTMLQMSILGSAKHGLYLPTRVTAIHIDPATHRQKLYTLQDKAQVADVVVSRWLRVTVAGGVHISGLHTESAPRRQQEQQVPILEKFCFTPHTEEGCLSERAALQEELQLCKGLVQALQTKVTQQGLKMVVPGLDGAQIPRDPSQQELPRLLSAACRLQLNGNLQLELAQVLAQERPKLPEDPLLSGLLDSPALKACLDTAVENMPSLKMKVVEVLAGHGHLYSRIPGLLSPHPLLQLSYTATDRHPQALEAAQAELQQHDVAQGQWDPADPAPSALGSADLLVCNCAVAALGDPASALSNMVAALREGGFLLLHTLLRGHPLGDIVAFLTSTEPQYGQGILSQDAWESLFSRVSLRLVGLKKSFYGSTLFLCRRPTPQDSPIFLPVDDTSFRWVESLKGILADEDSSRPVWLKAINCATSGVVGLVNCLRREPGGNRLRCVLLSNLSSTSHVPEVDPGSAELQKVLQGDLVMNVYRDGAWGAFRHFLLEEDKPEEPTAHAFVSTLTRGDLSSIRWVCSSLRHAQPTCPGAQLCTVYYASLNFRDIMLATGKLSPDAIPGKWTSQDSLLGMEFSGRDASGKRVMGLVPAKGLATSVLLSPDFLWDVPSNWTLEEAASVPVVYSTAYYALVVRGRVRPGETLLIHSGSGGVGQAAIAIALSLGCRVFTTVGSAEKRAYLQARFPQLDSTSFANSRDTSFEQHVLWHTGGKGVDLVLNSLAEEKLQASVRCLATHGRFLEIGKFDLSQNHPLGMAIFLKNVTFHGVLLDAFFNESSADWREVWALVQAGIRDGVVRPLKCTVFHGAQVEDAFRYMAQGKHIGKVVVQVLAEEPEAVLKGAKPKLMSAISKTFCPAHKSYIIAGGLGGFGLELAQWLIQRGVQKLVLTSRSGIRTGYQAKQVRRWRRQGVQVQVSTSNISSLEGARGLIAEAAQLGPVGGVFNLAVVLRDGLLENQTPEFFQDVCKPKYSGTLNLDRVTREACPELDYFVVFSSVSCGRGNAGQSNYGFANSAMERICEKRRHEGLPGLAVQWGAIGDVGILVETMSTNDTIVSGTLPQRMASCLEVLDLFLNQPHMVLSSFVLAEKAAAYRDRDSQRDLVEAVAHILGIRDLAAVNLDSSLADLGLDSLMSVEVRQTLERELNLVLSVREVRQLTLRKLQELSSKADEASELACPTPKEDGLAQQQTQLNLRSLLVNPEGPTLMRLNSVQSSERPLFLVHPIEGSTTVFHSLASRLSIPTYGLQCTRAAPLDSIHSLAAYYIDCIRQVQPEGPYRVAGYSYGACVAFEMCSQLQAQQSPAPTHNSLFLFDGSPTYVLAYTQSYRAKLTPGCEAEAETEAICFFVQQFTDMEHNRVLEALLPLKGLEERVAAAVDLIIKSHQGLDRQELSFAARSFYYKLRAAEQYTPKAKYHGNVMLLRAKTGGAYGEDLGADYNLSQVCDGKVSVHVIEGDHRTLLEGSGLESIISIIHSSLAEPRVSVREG", "assay": "inhibition of human FAS-TE enzyme activity – biochemical, endpoint fluorescence intensity, uHTS hits, dose response (AID 624327);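 further: fluorescence from hydrolysis of an O-methyl fluorescein acyl ester substrate by the enzyme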", "format": "functional"}, "Fatty acid synthase [4]": {"biological_target": "T2, Fatty acid synthase", "assay": "inhibition of human FAS-TE enzyme activity – biochemical, kinetic fluorescence intensity, dose response (AID 624326);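 further: rate of fluorescence rise from hydrolysis of a fluorogenic O-methyl fluorescein ester substrate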", "format": "functional"}, "[5]": {"assay": "viability of uninfected HEp-2 cells – cell-based, HTS, cytotoxicity control for RSV inhibitor project, dose response (AID 2410)", "format": "functional", "conditions": "human respiratory syncytial virus"}, "[6]": {"biological_target": "T3, Microphthalmia-associated transcription factor (Homo sapiens, UniProt O75030)", "T3 sequence (O75030 whole entry)": "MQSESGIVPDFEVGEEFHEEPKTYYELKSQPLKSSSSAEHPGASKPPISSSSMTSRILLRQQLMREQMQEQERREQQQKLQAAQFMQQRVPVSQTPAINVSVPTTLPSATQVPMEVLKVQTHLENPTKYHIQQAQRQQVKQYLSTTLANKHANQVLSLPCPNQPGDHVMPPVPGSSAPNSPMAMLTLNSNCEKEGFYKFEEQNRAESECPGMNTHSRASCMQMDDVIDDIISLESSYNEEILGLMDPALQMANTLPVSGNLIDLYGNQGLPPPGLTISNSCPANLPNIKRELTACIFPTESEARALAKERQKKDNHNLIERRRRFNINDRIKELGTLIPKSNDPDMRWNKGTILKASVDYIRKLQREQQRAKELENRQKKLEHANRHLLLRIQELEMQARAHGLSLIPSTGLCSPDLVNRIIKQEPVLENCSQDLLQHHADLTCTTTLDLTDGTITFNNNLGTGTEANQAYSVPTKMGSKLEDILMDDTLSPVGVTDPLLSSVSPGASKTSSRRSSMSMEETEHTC", "assay": "reducers of TRPM1 reporter luminescence, concentration series – cell-based, SK-MEL-5, cherry-picked, set 3, MITF inhibitor project, dose response (AID 493073)", "format": "functional"}, "[7]": {"assay": "blockers of HIV-1 ZM109 envelope-driven cell-cell fusion – HeLa effector, CEM target cells, luciferase, cherry-pick, dose response (AID 652058);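 further: luciferase signal from HIV-1 Env mediated cell-cell fusion of effector and target cells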", "format": "functional, cell-based"}, "[8]": {"biological_target": "Glucose-6-phosphate 1-dehydrogenase (Homo sapiens, UniProt P11413)", "sequence (P11413 whole entry)": "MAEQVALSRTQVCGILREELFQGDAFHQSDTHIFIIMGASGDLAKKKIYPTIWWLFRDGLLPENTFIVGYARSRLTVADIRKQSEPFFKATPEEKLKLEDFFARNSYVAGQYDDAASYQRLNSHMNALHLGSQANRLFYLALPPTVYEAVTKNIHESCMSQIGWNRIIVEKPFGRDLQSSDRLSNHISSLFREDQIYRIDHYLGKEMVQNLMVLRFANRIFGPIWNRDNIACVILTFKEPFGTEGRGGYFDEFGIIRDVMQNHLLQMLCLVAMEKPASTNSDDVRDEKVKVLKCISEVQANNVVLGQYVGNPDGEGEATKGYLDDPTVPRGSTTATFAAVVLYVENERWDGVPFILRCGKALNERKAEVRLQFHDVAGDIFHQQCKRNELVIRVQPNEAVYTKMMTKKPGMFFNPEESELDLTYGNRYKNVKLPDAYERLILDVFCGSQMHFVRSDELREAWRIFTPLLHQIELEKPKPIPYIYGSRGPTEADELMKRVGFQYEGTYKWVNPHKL", "assay": "inhibition of Homo sapiens G6PD, dose series – biochemical, fluorescence, selectivity assay for P. falciparum G6PD inhibitor project, dose response (AID 504792)", "format": "functional"}, "[9]": {"biological_target": "DNA dC->dU-editing enzyme APOBEC-3G (Homo sapiens, UniProt Q9HC16)", "sequence (Q9HC16 whole entry)": "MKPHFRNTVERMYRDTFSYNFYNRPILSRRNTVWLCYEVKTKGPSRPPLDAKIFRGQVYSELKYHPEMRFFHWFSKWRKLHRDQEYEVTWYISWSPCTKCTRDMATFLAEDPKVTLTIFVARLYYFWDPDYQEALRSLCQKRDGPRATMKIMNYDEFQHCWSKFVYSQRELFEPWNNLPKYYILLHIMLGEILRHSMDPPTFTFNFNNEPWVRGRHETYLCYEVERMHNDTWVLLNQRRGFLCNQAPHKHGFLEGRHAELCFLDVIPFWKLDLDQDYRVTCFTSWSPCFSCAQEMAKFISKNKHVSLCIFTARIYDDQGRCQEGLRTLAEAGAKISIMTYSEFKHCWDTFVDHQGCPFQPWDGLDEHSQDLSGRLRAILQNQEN", "assay": "Dose Response confirmation of small molecule APOBEC3G DNA Deaminase Inhibitors via a fluorescence-based single-stranded DNA deaminase assay. [Related pubchem assays (depositor defined):AID493012, AID493028]", "format": "functional"}, "cells": {"assay": "cells", "format": "functional"}, "[10]": {"assay": "P. falciparum Dd2 growth inhibitors, dose response, SYBR Green, cherry-picked samples (AID 1159567)", "format": "functional, cell-based"}, "[11]": {"assay": "toxicity to human hepatoma HepG2 cells – cell-based, cherry-picked samples, cytotoxicity control, dose response (AID 1159577)", "format": "functional"}},
  "note": "The source made the active and inactive calls.",
  "data": [
    {"smiles": "Nc1ncnc2c1ncn2C1C(O)C=C(CO)C1O", "note": "(configuration not stated)", "values": [
      {"measurement": "GI50", "setting": "SN12K1", "value": "> 625 µM (inactive)"}
    ]},
    {"smiles": "C/C=C/C=C/C(=O)OC(C)C(=O)Nc1cc([N+](=O)[O-])ccc1OC", "note": "(configuration not stated)", "values": [
      {"measurement": "IC50", "setting": "[1]", "value": "> 47.1 µM (inactive)"},
      {"measurement": "EC50", "setting": "[2]", "value": "> 53 µM (inactive)"},
      {"measurement": "IC50", "setting": "Fatty acid synthase [3]", "value": "4.02 µM (active)"},
      {"measurement": "IC50", "setting": "Fatty acid synthase [4]", "value": "4.79 µM (active)"}
    ]},
    {"smiles": "C=CCSC(=S)NC1CCS(=O)(=O)C1", "note": "(configuration not stated)", "values": [
      {"measurement": "CC50", "setting": "[5]", "value": "24.6 µM (active)"},
      {"measurement": "AC50", "setting": "[6]", "value": "20.7 µM (active)"}
    ]},
    {"smiles": "C[C@@H]1CN([C@@H](C)CO)S(=O)(=O)c2ccc(-c3ccccc3)cc2O[C@H]1CN(C)S(C)(=O)=O", "values": [
      {"measurement": "AC50", "setting": "[7]", "value": "44 µM (active)"}
    ]},
    {"smiles": "O=C(COc1ccc(S(=O)(=O)N2CCCCC2)cc1)Nc1ccccc1F", "values": [
      {"measurement": "IC50", "setting": "Fatty acid synthase [3]", "value": "16 µM (active)"},
      {"measurement": "IC50", "setting": "Fatty acid synthase [4]", "value": "17.2 µM (active)"}
    ]},
    {"smiles": "COC(=O)CCC(=O)Nc1sc(Cc2ccccc2)c(C)c1C(N)=O", "values": [
      {"measurement": "IC50", "setting": "[8]", "value": "> 80 µM (inactive)"},
      {"measurement": "IC50", "setting": "[9]", "value": "31.1 µM (active)"},
      {"measurement": "IC50", "setting": "cells", "value": "49 µM (active)"}
    ]},
    {"smiles": "CCOc1ccccc1N(CC)C(=O)c1ccc2c(=O)n3c(nc2c1)CCCCC3", "values": [
      {"measurement": "IC50", "setting": "Fatty acid synthase [3]", "value": "3.88 µM (active)"},
      {"measurement": "IC50", "setting": "Fatty acid synthase [4]", "value": "3.45 µM (active)"}
    ]},
    {"smiles": "N#C[C@H]1[C@H](c2ccc(C#Cc3ccccc3F)cc2)[C@@H](CO)N1C(=O)C1CCCC1", "values": [
      {"measurement": "AC50", "setting": "[10]", "value": "4.27 µM (active)"},
      {"measurement": "AC50", "setting": "[11]", "value": "> 39 µM (inactive)"}
    ]}
  ]
}
